Test results: patent US8202998B2, “Salts of benzimidazolyl pyridyl ethers and formulations thereof” (Novartis AG, priority 2006, dated 2012)

How the values were obtained:
[1] = Stability: degradation products (DP) and appearance (color) under stress conditions; type: physicochemical; parameters: key to CL: A: No change of color; B: Slight discoloration; C: Medium discoloration; D: Strong discoloration; ↓: Suspension; *: Clear solution after stress test; —: no change; x: test not performed
Procedure: Column: Symmetry C18 (Waters), 3.5 μm, 3×150 mm
Mobile phase: A=0.1% TFA in water; B=acetonitrile
Gradient: 20 to 100% B in 10 minutes
Column temperature: 40° C.
Stability of the three salts with respect to color and degradation products were assessed under various conditions.

[2] = Determination of solubility at 25° C.; type: physicochemical; conditions: for solubility: thermodynamic from solid
Procedure: Excess solids were equilibrated in each solvent for over 24 hours at 25° C.±0.1. Concentration in aqueous supernatant was measured by UV and HPLC and concentrations in organic solvents by gravimetry.

[3] = Intrinsic dissolution rate; type: physicochemical; conditions: 37° C.
Procedure: The intrinsic dissolution rate measurements were carried out in 0.5 cm^2 VanKel die assemblies and a pellet pressure of 1 ton. The dissolution was measured using a Cary 50 spectrophotometer with a stirring rate of 200 rpm. The solution medium was held at 37° C. and measurements were made at 276 nm.

[4] = Hygroscopicity (sorption/desorption); type: physicochemical
Procedure: Sorption/desorption isotherms were measured using VTI vapor sorption device (DVS-1). Measurements were carried out at 25° C.

[5] = Polymorphism behavior: crystal modification after 24 hours equilibration; type: physicochemical
Procedure: A suspension of 6 mg of drug substance in 300 μl of solvent is prepared. Samples are agitated for ≧24 hour at 22° C.±2° C. The solids are collected and investigated for changes.

[6] = pH of 1% solution or suspension; type: physicochemical; conditions: In water
[7] = Thermogravimetry / loss on drying; type: physicochemical
[8] = Effect of grinding on morphic properties; type: physicochemical
[9] = Aqueous solubility of salts in deionized water
[10] = 0.1% solutions or suspensions, 1 week 80° C. or 50° C., Methanol
[11] = 0.1% solutions or suspensions, 1 week 80° C. or 50° C., Water
[12] = 1-2 weeks 50° C., tight container, 1% in mixture 1
[13] = 1-2 weeks 50° C., tight container, 1% in mixture 2
[14] = 1-2 weeks 50° C./75% r.h., 1% in mixture 1
[15] = 1-2 weeks 50° C./75% r.h., 1% in mixture 2
[16] = Solid stage, 1 week 80° C., tight container, Bulk (HPLC)
[17] = Xenon light (approx. 1200 kLuxh), Bulk (HPLC)
[18] = deionized water, water, thermodynamic from solid

SMILES: CCS(=O)(=O)O.Cn1c(Nc2ccc(C(F)(F)F)cc2)nc2cc(Oc3ccnc(-c4ncc(C(F)(F)F)[nH]4)c3)ccc21 [Esylate, {1-methyl-5-[2-(5-trifluoromethyl-1H-imidazol-2-yl)-pyridin-4-yloxy]-1H-benzoimidazol-2-yl}-(4-trifluoromethyl-phenyl)amine ethanesulfonate]
- CL [1, 10]: A
- DP [1, 10]: 2.5%
- DP ([1]; 0.1% solutions or suspensions, 1 week 80° C. or 50° C., Methanol, listed as esylate): 2.7%
- CL [1, 11]: A↓
- DP [1, 11]: 0.4%
- CL [1, 12]: A
- DP [1, 12]: 0.5%
- CL [1, 13]: A
- DP [1, 13]: 0.6%
- CL [1, 14]: A
- DP [1, 14]: 1.8%
- CL [1, 15]: A
- DP [1, 15]: 0.8%
- CL [1, 16]: A
- DP [1, 16]: 0.5%
- DP ([1]; Solid state, 1 week 80° C./175% r.h, Bulk (HPLC)): 0.6%
- CL ([1]; Solid state, 1 week 80° C./, Bulk (HPLC)): A
- DP ([1]; Unstressed): 0.5%
- CL [1, 17]: A
- DP [1, 17]: 0.7%
- solubility ([2]; 0.1N HCl, 25 °C, simulated gastric fluid, read-out: Solubility (approx. at 25° C.) (HPLC)): 3700 µg/mL
- solubility ([2]; acetonitrile, 25 °C, organic solvent or mixture, read-out: Solubility (approx. at 25° C.)): 2100 µg/mL
- solubility ([2]; aqueous medium at pH 3, 25 °C, pH 3, aqueous buffer, read-out: Solubility (approx. at 25° C.) (HPLC)): 2.3 µg/mL
- solubility ([2]; aqueous medium at pH 4.5, 25 °C, pH 4.5, aqueous buffer, read-out: Solubility (approx. at 25° C.) (HPLC)): 3.7 µg/mL
- Solid ([2]; line after Water under Solubility): No change
- solubility ([2]; methanol, 25 °C, organic solvent or mixture, read-out: Solubility (approx. at 25° C.)): > 50000 µg/mL
- Measured pH ([2]; solubility sample in 0.1N HCl): 1.4
- Aqueous solubility (in words) ([2]; summary of Table 8): significantly improves aqueous solubility at all pH levels
- solubility ([2]; water, 25 °C, water, read-out: Solubility (approx. at 25° C.) (HPLC)): 60 µg/mL
- Intrinsic dissolution rate ([3]; HCl 0.1N): 0.06 mg min^−1 cm^−2
- Intrinsic dissolution rate ([3]; Water): 0.0036 mg min^−1 cm^−2
- Hygroscopicity from moisture sorption profiles (in words) [4]: hygroscopic
- Hygroscopicity: After 1 day at 80% r.h. ([4]; 80% r.h., 1 day, 25° C.): 5.3
- Hygroscopicity: After 1 day at 95% r.h. ([4]; 95% r.h., 1 day, 25° C.): 14.9
- Crystal modification after 24 hours equilibration (DSC/XRPD/TG) ([5]; 2-propanol): No change
- Crystal modification after 24 hours equilibration (DSC/XRPD/TG) ([5]; Acetone): No change
- Crystal modification after 24 hours equilibration (DSC/XRPD/TG) ([5]; Acetonitrile): No change
- Crystal modification after 24 hours equilibration (DSC/XRPD/TG) ([5]; Ethanol): No change
- Crystal modification after 24 hours equilibration (DSC/XRPD/TG) ([5]; Ethyl acetate): No change
- Crystal modification after 24 hours equilibration (DSC/XRPD/TG) ([5]; Methanol): No change
- Crystal modification after 24 hours equilibration (DSC/XRPD/TG) ([5]; PEG400): No change
- Crystal modification after 24 hours equilibration (DSC/XRPD/TG) ([5]; Water): No change
- pH of 1% solution or suspension [6]: 2.2
- Loss on drying by TG ([7]; As is): 2.1%
- Thermogravimetry (weight loss in %) ([7]; Heating rate 20 K/min): 2.1%
- Effect of grinding [8]: No change

SMILES: Cl.Cn1c(Nc2ccc(C(F)(F)F)cc2)nc2cc(Oc3ccnc(-c4ncc(C(F)(F)F)[nH]4)c3)ccc21 [Hydrochloride, {1-methyl-5-[2-(5-trifluoromethyl-1H-imidazol-2-yl)-pyridin-4-yloxy]-1H-benzoimidazol-2-yl}-(4-trifluoromethyl-phenyl)amine hydrochloride]
- solubility [9, 18]: 10 µg/mL
- solubility at 48 h [9, 18]: 457 µg/mL
- pH ([9]; pH of the saturated aqueous solutions): 2.079
